The subject of one series is ovulation. The series can be described thus: Contraceptive efficiency trial, 24/4 regimen (ovulation inhibition, Example 5, Part 3). It is filed as in vivo, human. As to the method:
The study was an open-label monocentric trial. […] Excluded were subjects with a (suspected) pregnancy, active or past thromboembolic disorder, present or past severe hepatic disease, carcinoma of the endometrium or other known or suspected estrogen-dependent neoplasia, undiagnosed vaginal bleeding, use of liver enzyme-inducing drugs and other drugs.
The subjects received daily treatment with tablets containing about 4 mg DRSP with a 24/4 regimen during two treatment cycles. The subjects started treatment on the 1st day of the cycle (i.e., the first day of onset of vaginal bleeding) following the screening visit. […]
Blood sampling for hormonal determination (progesterone, 17-beta-estradiol, FSH and LH) was performed every 3 days from day 1 to day 84 and assessments of weight, blood pressure and heart rate were performed at each visit. Serum progesterone, 17-beta-estradiol, FSH and LH concentrations were measured with validated commercial in vitro diagnostic kits (V1DAS, ELFA Biomerieux). […]
The occurrence of ovulation during treatment was determined on the basis of serum progesterone concentration, using the criteria of Landgren et al. Thus, an ovulation was judged to have occurred in case of progesterone concentrations >5.04 ng/ml-sustained for at least 2 consecutive progesterone samples.

The nature of series [1]: Particle size distribution by laser diffraction in wet dispersion. It is filed as physicochemical. The following applies: dispersant water. On the procedure:
The analysis of the particle size distribution of each batch was performed by laser diffraction method in wet dispersion (Helos sensor, Sympatec with the wet disperser Quixel). The dispersant used was water. The full particle dispersion was ensured by ultrasonication.

Series [2] is described as follows: Specific area by BET method. It counts as physicochemical. As to the method: The specific area was determined by the BET method.

Molecules are shown by their SMILES.

On to `C[C@]12CCC(=O)C=C1[C@@H]1C[C@@H]1[C@H]1[C@@H]3[C@@H]4C[C@@H]4[C@@]4(CCC(=O)O4)[C@@]3(C)CC[C@@H]12` [DRSP, 6b,7b:15b,16b-Dimethylen-3-oxo-17a-pregn-4-ene-21,17-carbolactone], for which, in the series on ovulation (24/4 regimen, ovulation = progesterone >5.04 ng/ml in 2 consecutive samples), the “ovulation during the 2 treatment cycles” value was “no ovulation occurred”. In the series with ovulation (upon cessation of treatment), the “women with progesterone above 5.04 ng/mL (return of ovulation) in 28-day follow-up cycle” value is 17 out of 20.

In series [1], `C[C@]12CCC(=O)C=C1[C@@H]1C[C@@H]1[C@H]1[C@@H]3[C@@H]4C[C@@H]4[C@@]4(CCC(=O)O4)[C@@]3(C)CC[C@@H]12` [PR100003, Drospirenone] showed a d10 of 5.9 μm, a d50 of 22.4 μm, a d90 of 37.4 μm and a d99 of 56.1 μm. This molecule also registered a Specific area in series [2] of 0.26 m^2/g.

In turn, `C[C@]12CCC(=O)C=C1[C@@H]1C[C@@H]1[C@H]1[C@@H]3[C@@H]4C[C@@H]4[C@@]4(CCC(=O)O4)[C@@]3(C)CC[C@@H]12` [PR100311, Drospirenone] registered a Specific area in series [2] of 0.66 m^2/g.

Take `C[C@]12CCC(=O)C=C1[C@@H]1C[C@@H]1[C@H]1[C@@H]3[C@@H]4C[C@@H]4[C@@]4(CCC(=O)O4)[C@@]3(C)CC[C@@H]12` [compound 080053, Drospirenone]: in series [1], the d10 is on record as 7.2 μm, the d50 was 19.8 μm, the d90 came out at 34.2 μm and the d99 worked out at 44.8 μm. In series [2], this molecule had a Specific area of 0.63 m^2/g.

`C[C@]12CCC(=O)C=C1[C@@H]1C[C@@H]1[C@H]1[C@@H]3[C@@H]4C[C@@H]4[C@@]4(CCC(=O)O4)[C@@]3(C)CC[C@@H]12` [compound 080169, Drospirenone]: in series [1], the d10 is recorded as 2.9 μm, the d50 amounted to 24.5 μm, the d90 was 37.1 μm and the d99 worked out at 48.9 μm. Also, in series [2], the Specific area is recorded as 0.45 m^2/g.

As to `C[C@]12CCC(=O)C=C1[C@@H]1C[C@@H]1[C@H]1[C@@H]3[C@@H]4C[C@@H]4[C@@]4(CCC(=O)O4)[C@@]3(C)CC[C@@H]12` [compound 080204, Drospirenone], in series [1], the d10 was determined as 4.4 μm, the d50 is on record as 13.1 μm, the d90 stood at 24.8 μm and the d99 is recorded as 34.5 μm. The molecule also gave a Specific area in series [2] of 0.83 m^2/g.

Take `C[C@]12CCC(=O)C=C1[C@@H]1C[C@@H]1[C@H]1[C@@H]3[C@@H]4C[C@@H]4[C@@]4(CCC(=O)O4)[C@@]3(C)CC[C@@H]12` [compound 080257, Drospirenone]: in series [1], the d10 is 5.3 μm, the d50 is 12.6 μm, the d90 came to 23.4 μm and the d99 was 35.3 μm. The molecule also returned a Specific area in series [2] of 0.77 m^2/g.

The values are drawn from US9603860B2, “Pharmaceutical compositions comprising active drugs, contraceptive kits comprising active drugs, and methods of administering the same” (LABORATORIOS LEON FARMA SA, priority 2010, dated 2017).
